Literature values as cited in patent US6410548B1, “Spiropiperidine derivatives as melanocortin receptor agonists” (Merck & Co., Inc., priority 1998, dated 2002).

How the values were obtained:
normal male volunteers = conditions: intramuscular, 0.005-0.03 mg/kg, three normal male volunteers
[1] = tested on: non-organic impotent patients; conditions: intramuscular, 0.025 mg/kg and 0.1 mg/kg, 10 non-organic impotent patients
rodents = conditions: injected ICV; feeding models NPY, ob/ob, agouti, fasted

| Substance | period of intermittent non-painful penile erections after dosing (normal male volunteers) [h] | onset of transient erections [1] [min] | responders (transient erections) [1] | effect on food intake (rodents) |
| --- | --- | --- | --- | --- |
| melanotan-II [MT-II] | 1 to 5 | 50 to 180 | 8 | reduces food intake |
| SHU-9119 | – | – | – | reverses this effect and can induce hyperphagia |
